From patent US4670469A, “Hydroxamic acid and pharmaceutical preparations containing the same” (VEB Arzneimittelwerk Dresden, priority 1983, dated 1987)
Read-outs that look alike come from different tables or passages of the source.

Key:
[1] = target: T1, lipoxygenase from rabbit reticulocytes (Oryctolagus cuniculus, UniProt P12530); assay: Inhibition of the activity of lipoxygenase from rabbit reticulocytes (oxygen consumption, Clark electrode); type: biochemical; details: for IC84: read-out: I84
T1 construct: The lipoxygenase from rabbit reticulocytes is obtained in electrophoretically and immunologically pure form; from tissue; host or cells: rabbit reticulocytes
T1 sequence (P12530 1-663): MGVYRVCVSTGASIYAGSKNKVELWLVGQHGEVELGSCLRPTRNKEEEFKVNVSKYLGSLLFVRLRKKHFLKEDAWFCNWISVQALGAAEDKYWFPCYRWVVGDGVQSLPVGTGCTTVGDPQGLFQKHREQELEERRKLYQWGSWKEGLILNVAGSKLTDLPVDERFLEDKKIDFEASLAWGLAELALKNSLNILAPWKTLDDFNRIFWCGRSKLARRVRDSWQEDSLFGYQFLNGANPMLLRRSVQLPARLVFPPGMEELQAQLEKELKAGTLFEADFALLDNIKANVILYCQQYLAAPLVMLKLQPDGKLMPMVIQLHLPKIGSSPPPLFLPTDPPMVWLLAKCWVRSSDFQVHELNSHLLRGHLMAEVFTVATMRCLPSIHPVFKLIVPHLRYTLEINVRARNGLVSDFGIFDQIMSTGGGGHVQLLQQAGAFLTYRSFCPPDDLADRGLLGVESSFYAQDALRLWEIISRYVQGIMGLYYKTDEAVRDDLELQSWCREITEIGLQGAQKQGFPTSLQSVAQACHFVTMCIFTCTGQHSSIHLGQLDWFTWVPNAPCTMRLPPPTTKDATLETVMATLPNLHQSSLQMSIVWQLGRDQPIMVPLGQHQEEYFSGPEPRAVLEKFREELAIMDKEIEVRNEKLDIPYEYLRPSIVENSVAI
Experimental: The lipoxygenase from rabbit reticulocytes was obtained in electrophoretically and immunologically pure form according to a technique known from the literature (S. M. Rapoport et al. Methods in Enzymology 71, 430 (1981)). The determination of lipoxygenase activity follows at 25° C. through the polarographic measurement of the oxygen consumption by means of Clark Electrode in a standardized system.
Through variation of the substance concentrations, the titration curves of the inhibition and therefrom the inhibition concentrations (I-value) of the compounds can be determined.
The testing of compounds for antiasthmatic, antiallergenic, inflammation-inhibiting and antithrombotic activity on the basis on the inhibition of the lipoxygenase reaction of the arachidonic acid cascade follows in a molecular/pharmacological test system. […] The lipoxygenase from rabbit reticulocytes is obtained in electrophoretically and immunologically pure form according to the techniques described in the literature (supra). The determination of the lipoxygenase activity follows at 25° C. through the polorographic measurement of oxygen consumption by means of a Clark-electrode in the following system: 0.1M potassiumphosphate, pH 7.4, with 0.2 percent sodium cholate and 0.53 mM linoleic acid. The enzyme concentration in the measurement preparation came to 25 nM. The compounds to be tested are dissolved in methylglycol (freshly distilled in a vacuum) and pre-incubated for 15 minutes at the measuring temperature in the absence of sodium cholate and linoleic acid. […] The enzyme reaction is started by the addition of sodium cholate and linoleic acid.

guinea pig lung strips [2] = assay: Arachidonic acid-induced spasm of isolated guinea pig lung strips; details: active substance 100 μM
From the text: They display in animal experimental tests on isolated lung strips from guinea pigs a pronounced antiasthmatic effect. The testing of the mentioned pharmacological characteristics follows according to the principles of measuring techniques known from the literature, which come into use in modified form (G. M. Drazen et al. G. Clin. Invest. 63 1 (1979); M. W. Schneider and G. M. Drazen Amer. Rev. Resp. Dis. 121 835 (1980); S. S. Yen and W. Kreutner, Agents Actions 10 274 (1980); S. S. Yen Prostaglandins 22, 183 (1981)).
The compounds of Formula I effect a significant restraint on arachidonic acid-induced bronchial constriction (1.5.10^-5 M arachidonic acid) in the guinea pig lung preparations (see, Example 6). Also with the addition of a cyclooxygenase inhibitor to the measuring system this effect was unaltered, and to some extent stronger, detectably. These experimental results permit without a doubt the conclusion that the compounds of Formula I involve inhibitors of the lipoxygerase pathway of arachidonic utilization, and the above described pharmacological effect is grounded upon this mechanism of activity.
(§1) The testing of the compounds for antiasthmatic activity follows on isolated lung strips and isolated tracheal rings from guinea pigs according to measuring methods known from the literature (supra) in modified form. The measurements follow in thermostatically controlled organ bath, isotonically using a contraction measuring arrangement with lift receiver, measuring coil, measuring amplifier (inductive measurement with the aid of a high frequency resonant circuit). The gasification follows with air. The suspension solution has the following composition: 39.46 g NaCl, 2.2 g KCl, 6.07 g Tris, 1.0 g CaCl2, 9.9 g glucose, 1.0 ml saturated MgCl2 -solution, 43 ml 1N HCl; pH 7.4.
(a) Activity on spasm of the guinea pig lung strips, induced by exogenous arachidonic acid.
The spasm is triggered by rising concentrations of arachidonic acid (concentrated solution in ethanol, stored in N2 -atmosphere) and is cumulatively measured. […] The active substance caused a highly significant displacement to the right of the Dose-Activity curves for arachidonic acid, visible by a clear elevation of the ED50 - and ED84 -values. The effect can be described through the following activity index: [formula] In an analogous manner, the index i84 is determined from the measured data.

guinea pig lung strips [3] = assay: Activity on the basal tones of guinea pig lung strips; details: Cavia porcellus, basal tone, cumulative dose-activity curve
From the text: as §1
(c) Activity on the basal tones of guinea pig lung strips.
Increasing concentrations of the active substance are added to the suspension medium. There occurs a dilatation, which is cumulatively measured. From the Dose-Activity-curves are provided the following parameters: […]

thrombocyte aggregation = assay: Arachidonic acid-induced thrombocyte aggregation in thrombocyte-rich plasma; type: cell-based, humans; details: Homo sapiens; 0.8 mM arachidonic acid; concentration giving total restraint of aggregation
From the text: Since with the new medicines the restraints of lipoxygenase has been identified as a molecular type of attack, also their influence on the thrombocyte-aggregation has been tested. The essential role of the lipoxygenase pathway for irreversibility of the thrombocyte aggregation is now known. (C. E. Dutilh et al. Prostaglandins and Medicine 6, 111 (1981)). The key role is attributed to the irreversibility of the thrombocyte aggregation in the pathogenesis of thrombotic illnesses. […] In the experiments, the thrombocyte aggregation was triggered either by means of arachidonic acid or by means of platelet activation factor (PAF-Acether).
The testing of the compounds for antithrombotic and thrombolytic activity follows in authentic cell systems of humans in vitro. Thrombocyte-rich plasma from the blood of healthy donors is obtained by centrifugation at 1,000×g. The measurement of the thrombocyte aggregation follows by means of an aggregometer based upon diffuse light scattering or light absorption of the produced cell aggregate. The thrombocyte-rich plasma is pre-incubated at 37° C. for 3 minutes with the active substance or substances; thereafter the thrombocyte aggregation is triggered through the addition of either 0.8 mM arachidonic acid or 1 μM platelet activation factor (PAF-acether). The preparations are then stirred with a velocity of 800 rpm. Indeed according to the employed active substance concentration there occurs either a strong delay or a complete inhibition of the thrombocyte aggregation.

guinea pig trachia = assay: Carbachol-induced spasm of guinea pig trachea; details: Cavia porcellus; spasm triggered by 3.9 μM carbachol; read-out: active substance concentration at which strong to very strong dilatation was clearly determinable
From the text: as §1
(b) Activity on the carbachol-induced spasm of guinea pig trachia
The spasms are triggered by 3.9 μM carbachol.

[4] = 25° C., pH 7.4, 0.53 mM linoleic acid, 15 min pre-incubation, read-out: I50
[5] = 25° C., pH 7.4, 0.53 mM linoleic acid, 15 min pre-incubation

| Structure (SMILES) | IC50 [1, 4] | IC84 [1, 5] | other results |
| --- | --- | --- | --- |
| O=C(NO)c1ccc2ccccc2c1O [1-hydroxy-2-naphthylhydroxamic acid] | 47 µM | 500 µM |  |
| CCC(Oc1cccc2ccccc12)C(=O)NO (centres unmarked) [2(1'-naphthoxy)-2-ethyl-acethydroxamic acid] | 42 µM | 130 µM |  |
| O=C(COc1cccc2ccccc12)NO [2(1'-naphthoxy)-acethydroxamic acid] | 25 µM | 60 µM |  |
| CCC(Oc1ccc2ccccc2c1)C(=O)NO (centres unmarked) [2(2'-naphthoxy)-2-ethyl-acethydroxamic acid] | 32 µM |  |  |
| CC(C)C(Oc1ccc2ccccc2c1)C(=O)NO (centres unmarked) [2(2'-naphthoxy)-2-i-propyl-acethydroxamic acid] | 27 µM |  |  |
| CC(Oc1ccc2ccccc2c1)C(=O)NO (centres unmarked) [2(2'-naphthoxy)-2-methyl-acethydroxamic acid] | 40 µM | 120 µM |  |
| CCCCC(Oc1ccc2ccccc2c1)C(=O)NO (centres unmarked) [2(2'-naphthoxy)-2-n-butyl-acethydroxamic acid] | 19 µM |  |  |
| CCCCCCCCCC(Oc1ccc2ccccc2c1)C(=O)NO (centres unmarked) [2(2'-naphthoxy)-2-n-nonyl-acethydroxamic acid] | 1.5 µM | 4.8 µM |  |
| CCCCCCCCC(Oc1ccc2ccccc2c1)C(=O)NO (centres unmarked) [2(2'-naphthoxy)-2-n-octyl-acethydroxamic acid] | 2.3 µM | 7 µM |  |
| CCCC(Oc1ccc2ccccc2c1)C(=O)NO (centres unmarked) [2(2'-naphthoxy)-2-n-propyl-acethydroxamic acid] | 24 µM |  |  |
| O=C(CCOc1ccc2ccccc2c1)NO [3(2'-naphthoxy)-n-propylhydroxamic acid, 3(2'-naphthoxy)-propylhydroxamic acid] | 7 µM | 15 µM |  |
| COc1ccc(O)c(C(C)(C)C)c1 [3-tert.-butyl-4-hydroxy-anisol, reference compound] |  |  | IC50 [1]: 160 µM; activity index i50 (displacement of arachidonic acid ED50) (guinea pig lung strips [2]): 4.6; activity index i84 (displacement of arachidonic acid ED84) (guinea pig lung strips [2]): 3.6; EC50 (guinea pig lung strips [3]; read-out: ED50 (dilatation)): 61 µM; EC84 (guinea pig lung strips [3]; read-out: ED84 (dilatation)): 130 µM |
| O=C(CCCOc1ccc2ccccc2c1)NO [4(2'-naphthoxy)-n-butyl-hydroxamic acid, 4(2'-naphthoxy)-butylhydroxamic acid] | 4 µM | 7.5 µM |  |
| O=[N+]([O-])c1ccc(O)c(O)c1 [4-nitrocatechol, reference compound] | 4.6 µM | 16 µM | IC100 (thrombocyte aggregation): 60 µM |
| O=C(CCCCOc1ccc2ccccc2c1)NO [5(2'-naphthoxy)valerylhydroxamic acid, 5(2'-naphthoxy)-valerylhydroxamic acid] | 3.5 µM | 6.4 µM |  |
| CCCCCCCCC#CCC#CCC#CCCCC(=O)O [5,8,11-eicosatriicacid, reference compound] | 1.3 µM |  |  |
| O=C(CCCCCCCOc1ccc2ccccc2c1)NO [8(2'-naphthoxy)-octylhydroxamic acid] | 2.1 µM | 4.6 µM |  |
| NC1=NN(c2cccc(C(F)(F)F)c2)CC1 [BW 755 C, 3-amino-N-(3-trifluoromethylphenyl)-pyrazoline-(2), reference compound] | 20 µM |  |  |
| CC(Cc1ccc(O)c(O)c1)C(C)Cc1ccc(O)c(O)c1 (centres unmarked) [nordihydroguaiaretic acid, reference compound] |  |  | minimal effective concentration (guinea pig trachia): 50 µM |
